Test results from US11192888B2, “Antibacterial compounds” (priority 2017, dated 2021).
Values after ≈ are worked out from the molar mass of the structure shown. Like-named read-outs stand apart in the source and are kept apart here.

What was measured:
[1] = test system: Enterococcus faecium NCTC 12204; experiment: microbe, parasite or virus in culture; details: NCTC12204
[2] = test system: Clostridium difficile strains (21 clinical, 7 reference); experiment: microbe, parasite or virus in culture; details: Clostridioides difficile
[3] = test system: Enterococcus faecalis ATCC 29212; experiment: microbe, parasite or virus in culture; details: ATCC29212
[4] = test system: Clostridium difficile strains (21 clinical, 7 reference)
[5] = test system: Corynebacterium jeikeium NCTC 11914; experiment: microbe, parasite or virus in culture; details: NCTC11914
[6] = test system: Lactobacillus rhamnosus ATCC 53103; experiment: microbe, parasite or virus in culture; details: Lacticaseibacillus rhamnosus, ATCC53103
[7] = test system: Corynebacterium urealyticum NCTC 12011; experiment: microbe, parasite or virus in culture; details: NCTC12011
[8] = test system: C. difficile ATCC 43255 (aka VPI 10463; ribotype 087); experiment: Mouse model of C. difficile-associated disease; format: in vivo, C57BL/6 mice
[9] = test system: Corynebacterium striatium NCTC 764; experiment: microbe, parasite or virus in culture; details: NCTC764
[10] = test system: Staphylococcus aureus ATCC 29213; experiment: microbe, parasite or virus in culture; details: ATCC29213
[11] = test system: Clostridium innocuum DSM 1286; experiment: microbe, parasite or virus in culture; details: DSM1286
[12] = test system: Bifidobacterium breve ATCC 15700; experiment: microbe, parasite or virus in culture; details: ATCC15700
[13] = test system: Propionibacterium acnes ATCC 6919; experiment: microbe, parasite or virus in culture; details: Cutibacterium acnes, ATCC6919
[14] = test system: Actinomyces viscosus DSM 43327; experiment: microbe, parasite or virus in culture; details: DSM43327
[15] = test system: Clostridium perfringens NCTC 8237; experiment: microbe, parasite or virus in culture
[16] = test system: Clostridium difficile ATCC 43255; experiment: CLSI MIC, representative gut bacteria; format: cell-based; details: Clostridioides difficile, ATCC43255; Clostridium difficile ATCC 43255; read-out: MIC
Method: (§1) Comparative in vitro bacterial susceptibility to compounds 3, 9 and 10, vancomycin and metronidazole was determined using methods according to the Clinical and Laboratory Standard Institute (CLSI) approved guidelines (M7-A10, M11-A7 or M45-A2) for anaerobic and aerobic organisms.

[17] = test system: Clostridium sordellii ATCC 9714; experiment: CLSI MIC, representative gut bacteria; format: cell-based; details: Paraclostridium sordellii, ATCC9714, read-out: MIC
Method: as §1

[18] = test system: Bifidobacterium bifidum ATCC 11863; experiment: microbe, parasite or virus in culture; details: ATCC11863
[19] = test system: Clostridium ramosum DSM 1402; experiment: microbe, parasite or virus in culture; details: Thomasclavelia ramosa, DSM1402
[20] = test system: Bacteroides fragilis ATCC 25285; experiment: microbe, parasite or virus in culture; details: ATCC25285

For `CN[C@H](CC(C)C)C(=O)N[C@H]1C(=O)N[C@@H](CC(N)=O)C(=O)N[C@H]2C(=O)N[C@H]3C(=O)N[C@H](C(=O)N[C@H](C(=O)O)c4cc(O)cc(O)c4-c4cc3ccc4O)[C@H](O)c3ccc(c(Cl)c3)Oc3cc2cc(c3O[C@@H]2O[C@H](CO)[C@@H](O)[C@H](O)[C@H]2O[C@H]2C[C@](C)(N)[C@H](O)[C@H](C)O2)Oc2ccc(cc2Cl)[C@H]1O` [Vancomycin, reference compound], the MIC [1] was greater than 64 µg/mL, the MIC [2] was 0.5 µg/mL (≈ 0.345 µM) and the MIC50 [2] was 0.5 µg/mL (≈ 0.345 µM). It also gave an MIC90 [2] of 0.5 µg/mL (≈ 0.345 µM), an MIC ([2]; ATCC9689) of 0.5 µg/mL (≈ 0.345 µM) and an MIC ([2]; ATCC13366) of 0.5 µg/mL (≈ 0.345 µM). For the same compound, the MIC ([2]; ATCC43255) was 0.5 µg/mL (≈ 0.345 µM), the MIC ([2]; ATCC700057) was 0.5 µg/mL (≈ 0.345 µM) and the MIC ([2]; BAA1875) was 0.5 µg/mL (≈ 0.345 µM). The MIC ([2]; read-out: MIC40) was 0.5 µg/mL (≈ 0.345 µM), the MIC [3] was 2 µg/mL (≈ 1.38 µM) and the MIC50 ([4]; 28 C. difficile strains) was 0.5 µg/mL (≈ 0.345 µM). It also gave an MIC90 ([4]; 28 C. difficile strains) of 0.5 µg/mL (≈ 0.345 µM), an MIC ([4]; C. difficile strain 630 (ribotype 012)) of 0.5 µg/mL (≈ 0.345 µM) and an MIC ([4]; C. difficile strain BI1-FDX^R) of 0.5 µg/mL (≈ 0.345 µM). It also gave an MIC ([4]; C. difficile strain Clin. 1) of 0.5 µg/mL (≈ 0.345 µM), an MIC ([4]; C. difficile strain Clin. 2) of 0.5 µg/mL (≈ 0.345 µM) and an MIC ([4]; C. difficile strain Clin. 3) of 0.5 µg/mL (≈ 0.345 µM). It also gave an MIC ([4]; C. difficile strain Clin. 6) of 0.5 µg/mL (≈ 0.345 µM), an MIC ([4]; C. difficile strain Clin. 7) of 0.5 µg/mL (≈ 0.345 µM) and an MIC ([4]; C. difficile strain Clin. 8) of 0.5 µg/mL (≈ 0.345 µM). It also gave an MIC ([4]; C. difficile strain Clin. 9) of 0.5 µg/mL (≈ 0.345 µM), an MIC ([4]; C. difficile strain Clin. 10) of 0.5 µg/mL (≈ 0.345 µM) and an MIC ([4]; C. difficile strain Clin. 11) of 0.5 µg/mL (≈ 0.345 µM). The MIC ([4]; C. difficile strain Clin. 12) was 0.5 µg/mL (≈ 0.345 µM), the MIC ([4]; C. difficile strain Clin. 13) was 0.5 µg/mL (≈ 0.345 µM) and the MIC ([4]; C. difficile strain Clin. 14) was 0.5 µg/mL (≈ 0.345 µM). The MIC ([4]; C. difficile strain Clin. 15) was 0.5 µg/mL (≈ 0.345 µM), the MIC ([4]; C. difficile strain Clin. 16) was 0.5 µg/mL (≈ 0.345 µM) and the MIC ([4]; C. difficile strain Clin. 18) was 0.5 µg/mL (≈ 0.345 µM). The MIC ([4]; C. difficile strain Clin. 20) was 0.5 µg/mL (≈ 0.345 µM), the MIC ([4]; C. difficile strain Clin. 21) was 0.5 µg/mL (≈ 0.345 µM) and the MIC ([4]; C. difficile strain Clin. 22) was 0.5 µg/mL (≈ 0.345 µM). The MIC ([4]; C. difficile strain Clin. 23) was 0.5 µg/mL (≈ 0.345 µM), the MIC ([4]; C. difficile strain Clin. 24) was 0.5 µg/mL (≈ 0.345 µM) and the MIC [5] was 1 µg/mL (≈ 0.69 µM). The MIC [6] was greater than 64 µg/mL, the MIC [7] was 1 µg/mL (≈ 0.69 µM) and the “survival to the end of the study at day-21 post-infection” value ([8]; 10 mg/kg) was “survived to the end of the study”. For the same compound, the Mean survival ([8]; 10 mg/kg oral BD for 5 days) was 504.00 h, the MIC [9] was 0.5 µg/mL (≈ 0.345 µM) and the MIC [10] was 1 µg/mL (≈ 0.69 µM).
With `Cc1ncc([N+](=O)[O-])n1CCO` [Metronidazole] the MIC [11] was 0.5 µg/mL (≈ 2.92 µM), the MIC [12] was 4 µg/mL (≈ 23.4 µM) and the MIC [13] was greater than 64 µg/mL. The MIC [14] was 2 µg/mL (≈ 11.7 µM), the MIC [15] was 1 µg/mL (≈ 5.84 µM) and the MIC [16] was 0.5 µg/mL (≈ 2.92 µM). It also gave an MIC [17] of 1 µg/mL (≈ 5.84 µM), an MIC [18] of 2 µg/mL (≈ 11.7 µM) and an MIC [19] of 4 µg/mL (≈ 23.4 µM). The MIC [20] was 0.5 µg/mL (≈ 2.92 µM).
